# According to the supplement of paper PMC10307832:
# Experiments:
# Assay in all cases: relative viability (nuclei count vs DMSO), 5 days (fraction); higher = more cells survive
# NCI-H520 = test system: NCI-H520
# Outline: (§1)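 Lung cancer cell lines, seeded in 1536-well plates, were treated the following day by pin tool with a single drug or with five library-drug doses (not always all listed) in √10 steps on top of a fixed anchor-drug dose. Cells were fixed and nuclei stained in one step after 5 days, and nuclei were counted. Relative viability is the nuclei count for treated wells divided by that for vehicle wells, reported as medians of duplicate plates.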
# PC-14 = test system: PC-14
# Outline: as §1
# NCI-H2347 = test system: NCI-H2347
# Outline: as §1
# LXF-289 = test system: LXF-289
# Outline: as §1
# NCI-H1915 = test system: NCI-H1915
# Outline: as §1
# NCI-H322M = test system: NCI-H322M
# Outline: as §1
# NCI-H1755 = test system: NCI-H1755
# Outline: as §1
# NCI-H3122 = test system: NCI-H3122
# Outline: as §1
# NCI-H727 = test system: NCI-H727
# Outline: as §1
# NCI-H1651 = test system: NCI-H1651
# Outline: as §1
# NCI-H460 = test system: NCI-H460
# Outline: as §1
# NCI-H1792 = test system: NCI-H1792
# Outline: as §1
# NCI-H441 = test system: NCI-H441
# Outline: as §1
# NCI-H1355 = test system: NCI-H1355
# Outline: as §1
# SK-MES-1 = test system: SK-MES-1
# Outline: as §1
# RERF-LC-KJ = test system: RERF-LC-KJ
# Outline: as §1
# NCI-H596 = test system: NCI-H596
# Outline: as §1
smiles,measurement,setting,value
CC(=O)O[C@@]12CO[C@@H]1C[C@H](O)[C@@]1(C)C(=O)[C@H](O)C3=C(C)[C@@H](OC(=O)[C@H](O)[C@@H](NC(=O)OC(C)(C)C)c4ccccc4)C[C@@](O)([C@@H](OC(=O)c4ccccc4)[C@H]21)C3(C)C [Docetaxel] + CC1(C)CCC(c2ccc(Cl)cc2)=C(CN2CCN(c3ccc(C(=O)NS(=O)(=O)c4ccc(N[C@H](CCN5CCOCC5)CSc5ccccc5)c(S(=O)(=O)C(F)(F)F)c4)cc3)CC2)C1 [Navitoclax] (partner 0.5 µM),relative viability,NCI-H520; first compound 0.0002 µM,1.07
same,relative viability,NCI-H520; first compound 0.000632 µM,0.86
same,relative viability,NCI-H520; first compound 0.002 µM,0.283
same,relative viability,NCI-H520; first compound 0.006325 µM,0.16
same,relative viability,NCI-H520; first compound 0.02 µM,0.156
same,relative viability,PC-14; first compound 0.0002 µM,0.978
same,relative viability,PC-14; first compound 0.000632 µM,0.961
same,relative viability,PC-14; first compound 0.002 µM,0.201
same,relative viability,PC-14; first compound 0.006325 µM,0.0826
same,relative viability,PC-14; first compound 0.02 µM,0.0464
same,relative viability,NCI-H2347; first compound 0.0002 µM,0.844
same,relative viability,NCI-H2347; first compound 0.000632 µM,0.653
same,relative viability,NCI-H2347; first compound 0.002 µM,0.408
same,relative viability,NCI-H2347; first compound 0.006325 µM,0.359
same,relative viability,NCI-H2347; first compound 0.02 µM,0.258
same,relative viability,LXF-289; first compound 0.0002 µM,0.96
same,relative viability,LXF-289; first compound 0.000632 µM,0.796
same,relative viability,LXF-289; first compound 0.002 µM,0.585
same,relative viability,LXF-289; first compound 0.006325 µM,0.142
same,relative viability,LXF-289; first compound 0.02 µM,0.0718
same,relative viability,NCI-H1915; first compound 0.0002 µM,0.789
same,relative viability,NCI-H1915; first compound 0.000632 µM,0.774
same,relative viability,NCI-H1915; first compound 0.002 µM,0.524
same,relative viability,NCI-H1915; first compound 0.006325 µM,0.102
same,relative viability,NCI-H1915; first compound 0.02 µM,0.0504
same,relative viability,NCI-H322M; first compound 0.0002 µM,1.14
same,relative viability,NCI-H322M; first compound 0.000632 µM,1.13
same,relative viability,NCI-H322M; first compound 0.002 µM,0.962
same,relative viability,NCI-H322M; first compound 0.006325 µM,0.511
same,relative viability,NCI-H322M; first compound 0.02 µM,0.306
same,relative viability,NCI-H1755; first compound 0.0002 µM,0.982
same,relative viability,NCI-H1755; first compound 0.000632 µM,0.98
same,relative viability,NCI-H1755; first compound 0.002 µM,0.401
same,relative viability,NCI-H1755; first compound 0.006325 µM,0.232
same,relative viability,NCI-H1755; first compound 0.02 µM,0.136
same,relative viability,NCI-H3122; first compound 0.0002 µM,0.996
same,relative viability,NCI-H3122; first compound 0.000632 µM,1
same,relative viability,NCI-H3122; first compound 0.002 µM,0.895
same,relative viability,NCI-H3122; first compound 0.006325 µM,0.376
same,relative viability,NCI-H3122; first compound 0.02 µM,0.168
same,relative viability,NCI-H727; first compound 0.0002 µM,0.488
same,relative viability,NCI-H727; first compound 0.000632 µM,0.442
same,relative viability,NCI-H727; first compound 0.002 µM,0.308
same,relative viability,NCI-H727; first compound 0.02 µM,0.149
same,relative viability,NCI-H1651; first compound 0.0002 µM,1.18
same,relative viability,NCI-H1651; first compound 0.000632 µM,0.968
same,relative viability,NCI-H1651; first compound 0.002 µM,0.233
same,relative viability,NCI-H1651; first compound 0.006325 µM,0.0921
same,relative viability,NCI-H1651; first compound 0.02 µM,0.0627
same,relative viability,NCI-H460; first compound 0.0002 µM,0.997
same,relative viability,NCI-H460; first compound 0.000632 µM,0.219
same,relative viability,NCI-H460; first compound 0.002 µM,0.0187
same,relative viability,NCI-H460; first compound 0.006325 µM,0.0123
same,relative viability,NCI-H460; first compound 0.02 µM,0.0104
same,relative viability,NCI-H1792; first compound 0.0002 µM,0.441
same,relative viability,NCI-H1792; first compound 0.000632 µM,0.614
same,relative viability,NCI-H1792; first compound 0.002 µM,0.437
same,relative viability,NCI-H1792; first compound 0.02 µM,0.0744
same,relative viability,NCI-H441; first compound 0.0002 µM,0.486
same,relative viability,NCI-H441; first compound 0.000632 µM,0.275
same,relative viability,NCI-H441; first compound 0.002 µM,0.204
same,relative viability,NCI-H441; first compound 0.006325 µM,0.23
same,relative viability,NCI-H441; first compound 0.02 µM,0.13
same,relative viability,NCI-H1355; first compound 0.0002 µM,0.901
same,relative viability,NCI-H1355; first compound 0.000632 µM,0.77
same,relative viability,NCI-H1355; first compound 0.002 µM,0.372
same,relative viability,NCI-H1355; first compound 0.006325 µM,0.272
same,relative viability,NCI-H1355; first compound 0.02 µM,0.175
same,relative viability,SK-MES-1; first compound 0.0002 µM,1.19
same,relative viability,SK-MES-1; first compound 0.000632 µM,0.692
same,relative viability,SK-MES-1; first compound 0.002 µM,0.251
same,relative viability,SK-MES-1; first compound 0.006325 µM,0.122
same,relative viability,SK-MES-1; first compound 0.02 µM,0.108
same,relative viability,RERF-LC-KJ; first compound 0.0002 µM,0.754
same,relative viability,RERF-LC-KJ; first compound 0.000632 µM,0.576
same,relative viability,RERF-LC-KJ; first compound 0.002 µM,0.174
same,relative viability,RERF-LC-KJ; first compound 0.006325 µM,0.202
same,relative viability,RERF-LC-KJ; first compound 0.02 µM,0.154
same,relative viability,NCI-H596; first compound 0.0002 µM,0.882
same,relative viability,NCI-H596; first compound 0.000632 µM,0.799
same,relative viability,NCI-H596; first compound 0.002 µM,0.565
same,relative viability,NCI-H596; first compound 0.006325 µM,0.477
same,relative viability,NCI-H596; first compound 0.02 µM,0.208
